# Laboratory results taken from patent publication US8518942B2, “Caspase inhibitors and uses thereof” (Buck Institute for Research on Aging, priority 2008, dated 2013).
# Columns and labels:
# [1] = target: T1, Caspase 3 (Homo sapiens, UniProt P42574); test: Irreversible inhibitor kinetic assay (progress curve), caspase-3, substrate Ac-DEVD-AMC; type: biochemical; parameters: gift: Guy Salvesen's laboratory, Burnham Institute (La Jolla, Calif.); conditions: casp-3; duplicate, SD included
# T1 sequence (P42574 29-175 limits assumed): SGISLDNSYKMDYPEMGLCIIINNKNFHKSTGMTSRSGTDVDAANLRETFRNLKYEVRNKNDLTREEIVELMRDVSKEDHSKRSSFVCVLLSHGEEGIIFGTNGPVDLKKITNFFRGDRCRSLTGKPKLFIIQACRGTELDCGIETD
# T1 sequence (P42574 176-277 limits assumed): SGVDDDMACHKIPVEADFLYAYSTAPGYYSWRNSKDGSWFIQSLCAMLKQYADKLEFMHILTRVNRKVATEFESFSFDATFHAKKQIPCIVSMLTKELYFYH
# Source text: (§1) Caspases-3, -6, -7, -8, and -9 were provided by Guy Salvesen's laboratory at the Burnham Institute (La Jolla, Calif.). Caspase-1 was purchased from EMD Biosciences (San Diego, Calif.) and Caspase-2 was purchased from Biomol International (Plymouth Meeting, Pa.). Caspase substrates Ac-DEVD-AMC, Ac-VDVAD-AFC, and Ac-LEHD-AFC were purchased from EMD Biosciences (San Diego, Calif.) and Ac-VDVAD-AMC was purchased from Biomol International (Plymouth Meeting, Pa.). The proteolytic cleavage of N-acyl aminocoumarins by caspases was conducted in Dynatech Microfluor fluorescence 96-well microtiter plates, and readings were taken on a Molecular Devices Spectra Max Gemini XS instrument. The excitation wavelength was 370 nm and the emission wavelength was 455 nm for AMCA substrates, the excitation wavelength was 355 nm and the emission wavelength was 450 nm for peptidyl AMC substrates, and the excitation wavelength was 430 nm and the emission wavelength was 535 nm for peptidyl AFC substrates.
# (§2) The kinact/Ki for inhibitors were determined under pseudo-first order conditions using the progress curve method (Eckici et al. (2006) J. Med. Chem., 49: 5728-5749; Bieth (1995) Meth. Enzymol., 248: 59-84). Assay wells contained a mixture of inhibitor and AMC or AFC substrate in buffer. Aliquots of caspase were added to each well to initiate the assay. Hydrolysis of the AMC or AFC substrate was monitored fluorometrically for 45 min. To determine the inhibition parameters, time points for which the control ([I]=0) was linear were used. For each inhibitor, a kobs was calculated for at least four different concentrations of inhibitors via a nonlinear regression of the data according to the equation P=(vi/kobs)[1−exp(−kobst) (where product formation=P, […], and the first-order rate constant=kobs). If kobs varied linearly with [I], then the association constant kass was determined by linear regression analysis using kobs=(kass[I])/(1+[S]/Km) where [S] is the concentration of the substrate. […] Inhibition was measured in duplicate and the average of is reported. […]
# [2] = target: T2, caspase-5 (Homo sapiens, UniProt P51878); test: Irreversible inhibitor kinetic assay (progress curve), caspase-5, substrate Ac-WEHD-AMC; type: biochemical; conditions: casp-5; duplicate, SD included
# T2 sequence (P51878 137-327 limits assumed): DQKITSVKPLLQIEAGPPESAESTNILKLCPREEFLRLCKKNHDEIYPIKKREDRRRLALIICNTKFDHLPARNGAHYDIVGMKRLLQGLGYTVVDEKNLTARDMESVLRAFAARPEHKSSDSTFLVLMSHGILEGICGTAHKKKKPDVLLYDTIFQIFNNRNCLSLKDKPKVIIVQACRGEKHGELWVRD
# T2 sequence (P51878 347-434 limits assumed): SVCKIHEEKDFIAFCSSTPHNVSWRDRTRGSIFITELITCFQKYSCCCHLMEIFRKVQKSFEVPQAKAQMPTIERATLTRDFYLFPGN
# Source text: as §1, §2
SMILES,kinact/Ki [1],kinact/Ki [2]
C[C@@](NC(=O)CCCC(=O)O)(c1cn([C@@H](CC(=O)O)C(=O)COc2c(F)c(F)cc(F)c2F)nn1)C1CCCCC1 [MJL-002i],"81,700 ± 6,900 s^−1/M^−1","16,500 ± 850 s^−1/M^−1"
C[C@@](NC(=O)Cc1ccccc1)(c1cn([C@@H](CC(=O)O)C(=O)COc2c(F)c(F)cc(F)c2F)nn1)C1CCCCC1 [MJL-003i],"29,850 ± 850 s^−1/M^−1","3,300 ± 200 s^−1/M^−1"
C[C@@](NS(=O)(=O)Cc1ccccc1)(c1cn([C@@H](CC(=O)O)C(=O)COc2c(F)c(F)cc(F)c2F)nn1)C1CCCCC1 [MJL-001i],"47,000 ± 1,400 s^−1/M^−1","2,250 ± 350 s^−1/M^−1"
